Where two headings read alike, the source gives them in different places.
Key:
[1] = Stability (decomposition rate) in acidic, neutral and alkaline aqueous solutions; assay type: physicochemical
[2] = reported; cited from earlier work
[3] = Maintenance on mouse skin samples (residual rate by HPLC); assay type: in vitro ADME; settings: for Maintenance 19 hours after starting incubation: 0.5 g and 2.0 g mouse skin; for Maintenance 19 hours after starting incubation / Residual rate: 0.037M, pH 7.0, 37° C.; for Residual rate: 0.5 g of the skin sample, 40 hours
Method: The back skin was depilated and peeled off after sacrificing mice by cervical dislocation at 24 weeks of age.
Each sample was tested in triplicate (n=3) in all of the 4 groups, and mean residual rates were calculated.
HPLC was conducted under the following conditions:
Solvent: methanol-water (20:80, v/v, adjusted to pH 2.5 using phosphoric acid)

[4] = Maintenance in mouse skin extract fluid (residual rate by HPLC); assay type: in vitro ADME; settings: skin extract fluid 1:1 with 0.1M solution, pH 7.0, 37° C.
Method: The skin samples obtained in Evaluation example 5 were weighed, and 2.6 g was added to sodium citrate-phosphate buffer solution (5.2 ml, pH 7.0) and homogenized. The homogenate obtained was used as skin extract fluid.
Each sample was tested in triplicate (n=3) in both groups, and mean residual rates were calculated.
HPLC was conducted under the conditions used in Evaluation example 5.

[5] = tested on: mushroom-derived tyrosinase; settings: cited from earlier work
[6] = pH 5.5, aqueous solution, 0.045M, 37° C.
[7] = pH 6.5, aqueous solution, 0.045M, 37° C.
[8] = pH 7.5, aqueous solution, 0.045M, 37° C.

half-life at 0.045 M ([1]; aqueous solution, pH 5.5, over pH 5.5 to 7.5, 37° C., read-out: Half-life in alkaline and acidic regions) [h] | half-life at 0.045 M ([1]; aqueous solution, pH 5.5, pH 5.5, aqueous solution, 0.045M, 37° C., α-arbutin determined after 69 hrs, read-out: Half-life (converted)) [h] | half-life at 0.045 M ([1]; aqueous solution, pH 6.5, pH 6.5, aqueous solution, 0.045M, 37° C., read-out: Half-life (converted)) [h] | half-life at 0.045 M ([1]; aqueous solution, pH 7.5, pH 7.5, aqueous solution, 0.045M, 37° C., read-out: Half-life (converted)) [h] | Decomposition rate constant [1, 6] | Decomposition rate constant [1, 7] | Decomposition rate constant [1, 8] | half-life at 0.045 M ([1]; buffer, pH 6.5) [h] | half-life at 0.045 M ([1]; buffer, pH 7.5) [h] | Maintenance 19 hours after starting incubation [3] | Residual rate [3] [%] | Residual rate, times larger than that of β-arbutin ([3]; 2.0 g of the skin sample, 40 hours after incubation) | Maintenance 4 hours after starting incubation [4] | Residual rate compared with the β-arbutin group ([4]; 20 hours) | Compound | Cytotoxicity, times more cytotoxic than β-arbutin [2] | Effect on mushroom-derived tyrosinase activity ([5]; Tokkaihei No. 5-932) | Inhibition of mushroom-derived tyrosinase ([5]; Tokkaihei No. 6-153976) | Tyrosinase inhibiting activity ([5]; mushroom-derived tyrosinase, Biochem. Biotech. Biochem., 59, 143 (1995))
0.6 to 10.8 | 10.8 | 0.8 | 0.6 | 0.064 | 0.903 | 1.117 |  |  |  |  |  |  |  | Oc1ccc(O)cc1 [Hydroquinone, hydroquinone] | about 400 times |  |  | 
 |  |  |  | 0 | 0.013 | 0.022 | 53.3 | 31.5 | remained virtually intact | 87.5 | about 10 times | remained virtually intact | more than twice higher | OCC1OC(Oc2ccc(O)cc2)C(O)C(O)C1O [α-Arbutin, hydroquinone-α-D-glucopyranoside] |  | promotes, rather than inhibits | effective in inhibiting mushroom-derived tyrosinase | does not show tyrosinase inhibiting activity
 |  |  |  |  |  |  |  |  | remained virtually intact | 0 |  | remained virtually intact |  | OC[C@H]1O[C@@H](Oc2ccc(O)cc2)[C@H](O)[C@@H](O)[C@@H]1O [β-Arbutin, hydroquinone-β-glucopyranoside, reference compound] |  |  |  | 

Source: patent US20030143251A1, “Skin preparations for external use” (priority 2000, published 2003)
